# Target: T1, FPRL2 (Homo sapiens, UniProt P25089)
# T1 sequence (P25089 1-353): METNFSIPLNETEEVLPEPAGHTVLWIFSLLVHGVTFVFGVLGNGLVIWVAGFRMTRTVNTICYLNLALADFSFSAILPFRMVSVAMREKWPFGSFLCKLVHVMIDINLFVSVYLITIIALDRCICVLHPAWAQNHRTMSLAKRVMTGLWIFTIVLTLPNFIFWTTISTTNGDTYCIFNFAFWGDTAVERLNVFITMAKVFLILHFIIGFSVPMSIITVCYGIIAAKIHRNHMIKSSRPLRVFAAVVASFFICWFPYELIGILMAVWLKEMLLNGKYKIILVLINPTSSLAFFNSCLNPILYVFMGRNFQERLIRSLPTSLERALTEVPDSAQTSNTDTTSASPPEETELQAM
# Experiment: Aequorine assay on human FPRL2 expressing cells (Example 9)
# Type: cell-based
# Design: expressed in transfected cells; host or cells: CHO-K1 (with or without Galpha16 and apoaequorin)
# Conditions: peptides 2.5 μM to 0.4 nM, Mab 500 ug/ml to 5 ug/ml; FIG. 15
# Method: Functional responses were analyzed by recording the luminescence of aequorine in human FPRL2 and FPRL1 expressing cells following the addition of agonists or purified monoclonal antibodies.
# In brief, cells were collected from plates with PBS containing 5 mM EDTA, pelleted, resuspend at 5×10^6 cells/ml in DMEM/F-12 medium containing 0.1% bovine serum albumin, incubated with 5 μM coelenterazine H (molecular probes, Inc. Eugene, Oreg.) for 4 h at room temperature and diluted in DMEM/F-12 medium at a concentration of 5×10^5 cells/ml. Cells where then mixed in an 96 wells plate with the ligands or purified monoclonal antibodies. The light emission was recorded over 60 sec using a microlumat Luminometer (EG&G Berthold, microplate luminometer LB 96V).
# Each data point is in duplicate. […] Human FPRL1 expressing cells were used as negative control to Mab. Functionality of these cells has been control with Humanin.
smiles,measurement,value
CC[C@H](C)[C@H](NC(=O)[C@H](CCSC)NC(=O)CNC(=O)[C@H](CC(C)C)NC(=O)[C@H](CCSC)NC(C)=O)C(=O)N[C@@H](CCCCN)C(=O)N[C@@H](CC(N)=O)C(=O)N[C@@H](CO)C(=O)N[C@@H](CC(C)C)C(=O)N[C@@H](Cc1ccccc1)C(=O)NCC(=O)N[C@@H](CO)C(=O)N[C@H](C(=O)N[C@@H](CCC(=O)O)C(=O)N[C@H](C(=O)N[C@@H](Cc1c[nH]c2ccccc12)C(=O)N1CCC[C@H]1C(=O)N[C@@H](Cc1c[nH]c2ccccc12)C(=O)N[C@@H](CCC(N)=O)C(=O)N[C@H](C(=O)N[C@@H](CC(C)C)C(=O)O)C(C)C)[C@@H](C)O)C(C)C [F2L],activation of human FPRL2 expressing cells,activates

# From patent US7659251B2, “Ligand for G-protein coupled receptor FPRL2” (priority 2004, dated 2010)
